pEC50: −log10 of the molar value.
Molecular target: T1, human GLP-1R receptor (Homo sapiens, UniProt P43220)
T1 construct: expressed in transfected cells
Assay: GLP-1R low expression cell assay (cAMP TR-FRET, CHO-K1_hGLP-1Rlow_clone10 cells)
Format: cell-based
Details: for pEC50: cAMP TR-FRET, 30 min at 25° C.; for Emax / GLP-1R Low Expression Cell Assay Emax (%): maximum activation relative to control GLP-1 peptide agonist
Method: Stable cell lines expressing high and low GLP-1R surface expression were generated in CHO-K1 cells transfected (Fugene 6) with a puromycin selectable DNA plasmid encoding human GLP-1R receptor (accession number: NM_002062.5) under control of an EF1A promoter. Transfected cells were seeded into 24-well plates (9,000 cells/well) containing complete medium and incubated in a humidified incubator at 37° C. with 5% carbon dioxide. After overnight incubation, medium was replaced with complete medium supplemented with puromycin (6 μg/mL) and refreshed every 2-3 days to select for stably transfected cells. Individual pools of selected cells were expanded prior to analysis for responsiveness to GLP-1 control peptide using a TR-FRET assay to detect cAMP (LANCE Ultra CAMP Assay, Perkin Elmer). Briefly, cells were collected in Versene solution, plated in 384-well plates (1,000 cells/well) and combined with serially diluted GLP-IR control peptide (10 nL) using an acoustic dispenser (ECHO). Plates were incubated for 30 minutes at 25° C. prior to the addition of EU-CAMP tracer (5 μL) and Ulight-anti-CAMP (5 μL) reagents to each well, followed by 15 minutes incubation at 25° C. TR-FRET signal was detected using an En Vision Multimode Plate Reader (excitation=320 nm; emission=615 and 655 nm). Dose-response curves were used to generate EC50 values as a measure of responsiveness to the GLP-IR control peptide. Selected cell lines were monitored for responsiveness over multiple passages to ensure stability. […] Briefly, GLP-IR expression was analyzed by flow cytometry using a fluorescein-labeled Exendin-4 peptide fluorescent probe (FLEX). Cells were harvested in Versene solution and washed 3-times with PBS+0.5% BSA before incubation with FLEX reagent (10 μM) for 2 hours at room temperature. After incubation, cells were washed 3-times in PBS+0.5% BSA before final resuspension in PBS prior to analysis by flow cytometry to measure FLEX mean fluorescence intensity (MFI) as a measure of GLP-IR expression on the cell surface.
For compound testing in the CHO-K1_hGLP-IRlow_clone10 cell line, cells were seeded in 384-well plates (1,000 cells/well). Test compounds were serially diluted in DMSO (10-point, 3-fold dilution), added to wells using an ECHO dispenser (10 nL/well) and plates were centrifuged for 1 min and agitated for 2 min at room temperature prior to 30-minute incubation at 25° C. After incubation, Eu-CAMP (5 μL) and Ulight-anti-cAMP (5 μL) reagents were added to each well, followed by centrifugation for 1 minute, agitation for 2 minutes at room temperature, and final incubation of the plates at 25° C. for 15 minutes. Plates were read using an EnVision microplate reader (excitation=320 nm; emission=615 and 655 nm). Dose-response curves were generated from duplicate wells based on percent activation calculated relative to a control GLP-1 peptide agonist that was run in parallel. EC50 values were determined by fitting percent activation as a function of compound concentration using the Hill equation (XLfit).
The compounds tested were compound samples prepared according to the General Procedures described in the Examples section.

T1 sequence (P43220 24-463): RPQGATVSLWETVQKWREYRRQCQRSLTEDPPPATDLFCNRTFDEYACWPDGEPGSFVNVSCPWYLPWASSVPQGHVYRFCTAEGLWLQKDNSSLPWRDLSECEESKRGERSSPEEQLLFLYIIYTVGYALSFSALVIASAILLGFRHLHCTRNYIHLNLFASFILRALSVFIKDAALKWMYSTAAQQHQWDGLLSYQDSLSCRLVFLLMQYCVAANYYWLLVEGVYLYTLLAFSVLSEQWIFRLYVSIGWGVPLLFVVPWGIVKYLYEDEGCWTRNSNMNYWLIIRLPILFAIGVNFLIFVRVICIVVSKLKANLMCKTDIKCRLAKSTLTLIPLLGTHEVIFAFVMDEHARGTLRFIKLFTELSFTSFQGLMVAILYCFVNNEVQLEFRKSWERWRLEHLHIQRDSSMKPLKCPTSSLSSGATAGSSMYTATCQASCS

| pEC50 | Emax [%] | GLP-1R Low Expression Cell Assay Emax (%) | Compound |
| --- | --- | --- | --- |
| < 6.00 | < 25 |  | C[C@@H](Oc1ccccc1C1CCN(Cc2nc3c(OC(F)F)cc(C(=O)O)cc3n2C)CC1)c1ccc(C#N)cc1F (single isomer, unassigned) [Compound 173] |
| < 6.00 | < 25 |  | CC(Oc1ccccc1C1CCN(Cc2nc3c(OC(F)F)cc(C(=O)O)cc3n2C)CC1)c1ccc(C#N)cc1F (single isomer, unassigned) [Compound 174] |
| > 8.00 | > 85 |  | Cn1c(CN2CCC(c3cccc4c3OC(c3ccc(Cl)cc3F)C=C4)CC2)nc2c(OC(F)F)cc(C(=O)O)cc21 (single isomer, unassigned) [Compound 175] |
| 7.00 to 8.00 | > 85 |  | CC(CF)Oc1cc(C(=O)O)cc2c1nc(CN1CCC(c3cccc(OCc4ccc(Cl)cc4F)n3)CC1)n2C (single isomer, unassigned) [Compound 262] |
| > 8.00 |  | ++++ (Emax is >85%) | CC(CF)Oc1cc(C(=O)O)cc2c1nc(CN1CCC(c3cccc(OCc4ccc(Cl)cc4F)n3)CC1)n2C (single isomer, unassigned) [Compound 263] |
| > 8.00 | > 85 |  | Cn1c(CN2CCC(c3cccc(OCc4ccc(Cl)cc4F)n3)CC2)nc2c(OC(F)CF)cc(C(=O)O)cc21 (single isomer, unassigned) [Compound 329] |
| 7.00 to 8.00 |  | ++++ (Emax is >85%) | Cn1c(CN2CCC(c3cccc(OCc4ccc(Cl)cc4F)n3)CC2)nc2c(OC(F)CF)cc(C(=O)O)cc21 (single isomer, unassigned) [Compound 330] |
| > 8.00 | > 85 |  | C[C@H](F)Oc1cc(C(=O)O)cc2c1nc(CN1CCC(c3cccc(OCc4ccc(Cl)cc4F)n3)CC1)n2C (single isomer, unassigned) [Compound 360] |
| 7.00 to 8.00 | > 85 |  | C[C@@H](F)Oc1cc(C(=O)O)cc2c1nc(CN1CCC(c3cccc(OCc4ccc(Cl)cc4F)n3)CC1)n2C (single isomer, unassigned) [Compound 361] |
| > 8.00 | > 85 |  | COCCOc1cc(C(=O)O)cc2c1nc(CN1CCC(c3cccc4c3O[C@@](C)(c3ccc(Cl)cn3)O4)CC1)n2Cc1cncs1 [Compound 2, (S)-2-((4-(2-(5-Chloropyridin-2-yl)-2-methylbenzo[d][1,3]dioxol-4-yl)piperidin-1-yl)methyl)-4-(2-methoxyethoxy)-1-(thiazol-5-ylmethyl)-1H-benzo[d]imidazole-6-carboxylic acid] |
| 6.00 to 7.00 | > 85 |  | COCCOc1cc(C(=O)O)cc2c1nc(CN1CCC(c3cccc4c3O[C@](C)(c3ccc(Cl)cn3)O4)CC1)n2Cc1cncs1 [Compound 3, (R)-2-((4-(2-(5-Chloropyridin-2-yl)-2-methylbenzo[d][1,3]dioxol-4-yl)piperidin-1-yl)methyl)-4-(2-methoxyethoxy)-1-(thiazol-5-ylmethyl)-1H-benzo[d]imidazole-6-carboxylic acid] |
| > 8.00 | > 85 |  | COCCOCCOCCOCCOCCOc1cc(C(=O)O)cc2c1nc(CN1CCC(c3cccc4c3O[C@@](C)(c3ccc(Cl)cn3)O4)CC1)n2Cc1cncs1 [Compound 4, (S)-4-((2,5,8,11,14-pentaoxahexadecan-16-yl)oxy)-2-((4-(2-(5-chloropyridin-2-yl)-2-methylbenzo[d][1,3]dioxol-4-yl)piperidin-1-yl)methyl)-1-(thiazol-5-ylmethyl)-1H-benzo[d]imidazole-6-carboxylic acid] |
| < 6.00 | < 25 |  | COCCOCCOCCOCCOCCOc1cc(C(=O)O)cc2c1nc(CN1CCC(c3cccc4c3O[C@](C)(c3ccc(Cl)cn3)O4)CC1)n2Cc1cncs1 [Compound 5, (R)-4-((2,5,8,11,14-pentaoxahexadecan-16-yl)oxy)-2-((4-(2-(5-chloropyridin-2-yl)-2-methylbenzo[d][1,3]dioxol-4-yl)piperidin-1-yl)methyl)-1-(thiazol-5-ylmethyl)-1H-benzo[d]imidazole-6-carboxylic acid] |
| > 8.00 | > 85 |  | CO/N=C/c1ccc(COc2cccc(C3CCN(Cc4nc5c(OC)cc(C(=O)O)cc5n4C[C@@H]4CCO4)CC3)n2)c(F)c1 [Compound 9, (S)-2-((4-(6-((2-Fluoro-4-((methoxyimino)methyl)benzyl)oxy)pyridin-2-yl)piperidin-1-yl)methyl)-4-methoxy-1-(oxetan-2-ylmethyl)-1H-benzo[d]imidazole-6-carboxylic acid] |
| > 8.00 |  |  | COCCOc1cc(C(=O)O)cc2c1nc(CN1CCC(c3cccc4c3O[C@@](C)(c3ccc(Cl)cn3)O4)CC1)n2C [Compound 30, (S)-2-((4-(2-(5-Chloropyridin-2-yl)-2-methylbenzo[d][1,3]dioxol-4-yl)piperidin-1-yl)methyl)-4-(2-methoxyethoxy)-1-methyl-1H-benzo[d]imidazole-6-carboxylic acid] |
| > 8.00 |  |  | COc1cc(C(=O)O)cc2c1nc(CN1CCC(c3cccc4c3O[C@@](C)(c3ccc(Cl)cn3)O4)CC1)n2Cc1cncs1 [Compound 32, (S)-2-((4-(2-(5-Chloropyridin-2-yl)-2-methylbenzo[d][1,3]dioxol-4-yl)piperidin-1-yl)methyl)-4-methoxy-1-(thiazol-5-ylmethyl)-1H-benzo[d]imidazole-6-carboxylic acid] |
| > 8.00 |  |  | CC(F)(F)c1cc(C(=O)O)cc2c1nc(CN1CCC(c3cccc4c3O[C@@](C)(c3ccc(Cl)cn3)O4)CC1)n2C[C@@H]1CCO1 [Compound 57, 2-((4-((S)-2-(5-Chloropyridin-2-yl)-2-methylbenzo[d][1,3]dioxol-4-yl)piperidin-1-yl)methyl)-4-(1,1-difluoroethyl)-1-(((S)-oxetan-2-yl)methyl)-1H-benzo[d]imidazole-6-carboxylic acid] |
| > 8.00 |  |  | COc1cc(C(=O)O)cc2c1nc(CN1CCC(c3cccc4c3O[C@@H](c3ccc(C#N)cc3F)CO4)CC1)n2Cc1cncs1 [Compound 63, (S)-2-((4-(3-(4-cyano-2-fluorophenyl)-2,3-dihydrobenzo[b][1,4]dioxin-5-yl)piperidin-1-yl)methyl)-4-methoxy-1-(thiazol-5-ylmethyl)-1H-benzo[d]imidazole-6-carboxylic acid] |
| 7.00 to 8.00 | > 85 |  | COCCOc1cc(C(=O)O)cc2[nH]c(CN3CCC(c4cccc5c4O[C@@](C)(c4ccc(Cl)cn4)O5)CC3)nc12 [Compound 74, (S)-2-((4-(2-(5-Chloropyridin-2-yl)-2-methylbenzo[d][1,3]dioxol-4-yl)piperidin-1-yl)methyl)-4-(2-methoxyethoxy)-1H-benzo[d]imidazole-6-carboxylic acid] |
| < 6.00 | < 25 |  | C[C@]1(c2ccc(Cl)cn2)Oc2cccc(C3CCN(Cc4nc5cc(C(=O)O)cc6c5n4CCO6)CC3)c2O1 [Compound 75, (S)-2-((4-(2-(5-chloropyridin-2-yl)-2-methylbenzo[d][1,3]dioxol-4-yl)piperidin-1-yl)methyl)-3,4-dihydro-5-oxa-1,2a-diazaacenaphthylene-7-carboxylic acid] |
| < 6.00 | 50 to 85 |  | COCCOc1cc(C(=O)O)cc2nc(CN3CCC(c4cccc5c4O[C@@](C)(c4ccc(Cl)cn4)O5)CC3)n(C)c12 [Compound 76, (S)-2-((4-(2-(5-Chloropyridin-2-yl)-2-methylbenzo[d][1,3]dioxol-4-yl)piperidin-1-yl)methyl)-7-(2-methoxyethoxy)-1-methyl-1H-benzo[d]imidazole-5-carboxylic acid] |
| 6.00 to 7.00 | > 85 |  | COc1cc(C(=O)O)cc2c1nc(N(C)[C@H]1CC[C@@H](c3cccc4c3O[C@@](C)(c3ccc(Cl)cn3)O4)CC1)n2C[C@@H]1CCO1 [Compound 79, 2-(((1R,4R)-4-((S)-2-(5-chloropyridin-2-yl)-2-methylbenzo[d][1,3]dioxol-4-yl)cyclohexyl)(methyl)amino)-4-methoxy-1-(((S)-oxetan-2-yl)methyl)-1H-benzo[d]imidazole-6-carboxylic acid] |

— patent US20240368120A1 (Terns Pharmaceuticals, Inc., priority 2023, published 2024)
